What was measured:
Format in all cases: in vivo
[1] = test system: Setaria viridis; assay: Test Example 4: herbicidal effect by soil treatment (symbol G); settings: application herbicide amount 320 g/ha
How it was run: (§1)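 Seeds were sown in sterilized diluvial soil, covered with about 1.5 cm of soil, and the soil surface was sprayed with a water-diluted emulsion of the compound at a predetermined rate. Plants grew in a greenhouse at 25° C. to 30° C.; effects were scored visually 3 weeks after application.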

[2] = test system: Abutilon theophrasti; assay: Test Example 4: herbicidal effect by soil treatment (symbol M); settings: application herbicide amount 320 g/ha
How it was run: as §1

[3] = test system: Monochoria vaginalis; assay: Test Example 2: herbicidal activity, application during weed generation in submerged conditions (symbol C); settings: Table 23; application herbicide amount 320 g/ha; grade 0-5 by criteria of Test Example 1
How it was run: (§2)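 Steps: fill pots with alluvial soil; add water to 4 cm depth; co-sow the three weeds; grow at 25° C. to 30° C. under glass; at 1–2 leaves, dose the floodwater with diluted emulsion; rate damage visually after 3 weeks.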

[4] = test system: soybean; assay: Test Example 4: effect on crop by soil treatment (symbol d); settings: application herbicide amount 320 g/ha
How it was run: (§3)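 The test used sterilized diluvial soil. Seed was set down in spots and overlaid with about 1.5 cm of soil before growth in a greenhouse kept at 25° C. to 30° C.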

[5] = test system: beet; assay: Test Example 4: effect on crop by soil treatment (symbol f); settings: application herbicide amount 320 g/ha
How it was run: as §3

[6] = test system: Echinochloa crus-galli var. crus-galli; assay: Test Example 3: herbicidal effect by foliage application, Wagner pot (symbol H); settings: application herbicide amount 320 g/ha, Table 24
How it was run: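 Post-emergence, paddy-type test: seedlings 14 d old in shallow-flooded (0.1–0.5 cm) alluvial soil, 25–30 °C greenhouse. Emulsion diluted to target rate, sprayed on leaves. Read-out: visual effect on each species at 3 weeks, per set criteria.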

[7] = test system: Avena fatua; assay: Test Example 5: herbicidal effect by foliage application, plastic box (symbol I); settings: 320 g/ha, 3 weeks after application
How it was run: (§4)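 After sowing into sterilized diluvial soil and growing two weeks under glass at 25° C. to 30° C., seedlings receive a uniform foliar spray of diluted emulsion. Damage is judged visually three weeks on.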

[8] = test system: rice plant; assay: Test Example 5: effect on crop by foliage application, plastic box (symbol b); settings: 320 g/ha, 3 weeks after application
How it was run: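 Box culture: sterile diluvial soil, seeds spot-sown, ~1.5 cm cover, raised under glass at 25–30° C.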

[9] = test system: Chenopodium album; assay: Test Example 4: herbicidal effect by soil treatment (symbol O); settings: application herbicide amount 320 g/ha
How it was run: as §1

[10] = test system: Galium spurium; assay: Test Example 4: herbicidal effect by soil treatment (symbol Q); settings: application herbicide amount 320 g/ha
How it was run: as §1

[11] = test system: Apera spica-venti; assay: Test Example 4: herbicidal effect by soil treatment (symbol L); settings: application herbicide amount 320 g/ha
How it was run: as §1

[12] = test system: Apera spica-venti; assay: Test Example 5: herbicidal effect by foliage application, plastic box (symbol L); settings: 320 g/ha, 3 weeks after application
How it was run: as §4

[13] = test system: Veronica persica; assay: Test Example 5: herbicidal effect by foliage application, plastic box (symbol R); settings: 320 g/ha, 3 weeks after application
How it was run: as §4

[14] = test system: Lolium multiflorum Lam.; assay: Test Example 4: herbicidal effect by soil treatment (symbol K); settings: application herbicide amount 320 g/ha
How it was run: as §1

[15] = test system: Abutilon theophrasti; assay: Test Example 5: herbicidal effect by foliage application, plastic box (symbol M); settings: 320 g/ha, 3 weeks after application
How it was run: as §4

[16] = test system: Stellaria media; assay: Test Example 5: herbicidal effect by foliage application, plastic box (symbol P); settings: 320 g/ha, 3 weeks after application
How it was run: as §4

[17] = test system: Digitaria ciliaris; assay: Test Example 4: herbicidal effect by soil treatment (symbol F); settings: application herbicide amount 320 g/ha
How it was run: as §1

[18] = test system: Chenopodium album; assay: Test Example 5: herbicidal effect by foliage application, plastic box (symbol O); settings: 320 g/ha, 3 weeks after application
How it was run: as §4

[19] = test system: Echinochloa oryzacola Vasing.; assay: Test Example 2: herbicidal activity, application during weed generation in submerged conditions (symbol A); settings: Table 23; application herbicide amount 320 g/ha; grade 0-5 by criteria of Test Example 1
How it was run: as §2

SMILES | Herbicidal effect grade, G: Setaria viridis [1] | Herbicidal effect grade, M: Abutilon theophrasti [2] | Herbicidal effect grade, C: Monochoria vaginalis [3] | Effect on crop grade, d: soybean [4] | Effect on crop grade, f: beet [5] | H (Echinochloa crus-galli var. crus-galli) herbicidal effect grade [6] | I: Avena fatua, herbicidal effect grade [7] | b: directly sowed rice plant, effect on crop grade [8] | Herbicidal effect grade, O: Chenopodium album [9] | Herbicidal effect grade, Q: Galium spurium [10] | Herbicidal effect grade, L: Apera spica-venti [11] | L: Apera spica-venti, herbicidal effect grade [12] | R: Veronica persica, herbicidal effect grade [13] | Herbicidal effect grade, K: Lolium multiflorum Lam. [14] | M: Abutilon theophrasti, herbicidal effect grade [15] | P: Stellaria media, herbicidal effect grade [16] | Herbicidal effect grade, F: Digitaria ciliaris [17] | O: Chenopodium album, herbicidal effect grade [18] | Herbicidal effect grade, A: Echinochloa oryzacola Vasing. [19] | G: Setaria viridis, herbicidal effect grade [1] | also measured
CON=C(C)CC1C(O)=C(c2c(C)cc(C)cc2C)C(=O)C1C (mixture of isomers) [12-002] | 5 (Herbicidal ratio of 90% or more (almost completely withered)) | 0 (Herbicidal ratio of 5% or lower (almost no effect)) | 1 (Herbicidal ratio of 5% or higher and lower than 20%) | 0 (Herbicidal ratio of 5% or lower (almost no effect)) | 0 (Herbicidal ratio of 5% or lower (almost no effect)) | 5 (Herbicidal ratio of 90% or more (almost completely withered)) | 5 (Herbicidal ratio of 90% or more (almost completely withered)) | 5 (Herbicidal ratio of 90% or more (almost completely withered)) | 0 (Herbicidal ratio of 5% or lower (almost no effect)) | 0 (Herbicidal ratio of 5% or lower (almost no effect)) | 3 (Herbicidal ratio of 40% or higher and lower than 70%) | 5 (Herbicidal ratio of 90% or more (almost completely withered)) | 4 (Herbicidal ratio of 70% or higher and lower than 90%) | 5 (Herbicidal ratio of 90% or more (almost completely withered)) | 1 (Herbicidal ratio of 5% or higher and lower than 20%) | 4 (Herbicidal ratio of 70% or higher and lower than 90%) | 4 (Herbicidal ratio of 70% or higher and lower than 90%) | 2 (Herbicidal ratio of 20% or higher and lower than 40%) | 5 (Herbicidal ratio of 90% or more (almost completely withered)) |  | 
CCC(CC1CC(O)=C(c2c(C)cc(-c3ccccc3)cc2OC)C1=O)=NOC (mixture of isomers) [13-004] |  |  | 4 (Herbicidal ratio of 70% or higher and lower than 90%) |  |  | 5 (Herbicidal ratio of 90% or more (almost completely withered)) | 5 (Herbicidal ratio of 90% or more (almost completely withered)) | 5 (Herbicidal ratio of 90% or more (almost completely withered)) |  |  |  | 5 (Herbicidal ratio of 90% or more (almost completely withered)) | 3 (Herbicidal ratio of 40% or higher and lower than 70%) |  | 1 (Herbicidal ratio of 5% or higher and lower than 20%) | 2 (Herbicidal ratio of 20% or higher and lower than 40%) |  | 4 (Herbicidal ratio of 70% or higher and lower than 90%) | 5 (Herbicidal ratio of 90% or more (almost completely withered)) | 5 (Herbicidal ratio of 90% or more (almost completely withered)) | M: Abutilon theophrasti, herbicidal effect grade [2]: 0 (Herbicidal ratio of 5% or lower (almost no effect)); d: soybean, effect on crop grade [4]: 1 (Herbicidal ratio of 5% or higher and lower than 20%); f: beet, effect on crop grade [5]: 0 (Herbicidal ratio of 5% or lower (almost no effect)); O: Chenopodium album, herbicidal effect grade [9]: 0 (Herbicidal ratio of 5% or lower (almost no effect)); Q: Galium spurium, herbicidal effect grade [10]: 0 (Herbicidal ratio of 5% or lower (almost no effect)); L: Apera spica-venti, herbicidal effect grade [11]: 5 (Herbicidal ratio of 90% or more (almost completely withered)); K: Lolium multiflorum Lam., herbicidal effect grade [14]: 5 (Herbicidal ratio of 90% or more (almost completely withered)); F: Digitaria ciliaris, herbicidal effect grade [17]: 5 (Herbicidal ratio of 90% or more (almost completely withered))
Cc1cc(Br)cc(C)c1C1=C(O)CC(CC(=O)C(C)C)C1=O (racemic) [10-003] | 4 (Herbicidal ratio of 70% or higher and lower than 90%) | 0 (Herbicidal ratio of 5% or lower (almost no effect)) | 0 (Herbicidal ratio of 5% or lower (almost no effect)) | 0 (Herbicidal ratio of 5% or lower (almost no effect)) | 0 (Herbicidal ratio of 5% or lower (almost no effect)) | 5 (Herbicidal ratio of 90% or more (almost completely withered)) | 3 (Herbicidal ratio of 40% or higher and lower than 70%) | 4 (Herbicidal ratio of 70% or higher and lower than 90%) | 0 (Herbicidal ratio of 5% or lower (almost no effect)) | 0 (Herbicidal ratio of 5% or lower (almost no effect)) | 3 (Herbicidal ratio of 40% or higher and lower than 70%) | 3 (Herbicidal ratio of 40% or higher and lower than 70%) | 0 (Herbicidal ratio of 5% or lower (almost no effect)) | 4 (Herbicidal ratio of 70% or higher and lower than 90%) | 0 (Herbicidal ratio of 5% or lower (almost no effect)) | 0 (Herbicidal ratio of 5% or lower (almost no effect)) | 0 (Herbicidal ratio of 5% or lower (almost no effect)) | 0 (Herbicidal ratio of 5% or lower (almost no effect)) | 3 (Herbicidal ratio of 40% or higher and lower than 70%) |  | 
COc1cc(Br)cc(C)c1C1=C(O)CC(CC(=O)C2CC2)C1=O (racemic) [14-001] |  |  | 1 (Herbicidal ratio of 5% or higher and lower than 20%) |  |  | 5 (Herbicidal ratio of 90% or more (almost completely withered)) | 5 (Herbicidal ratio of 90% or more (almost completely withered)) | 5 (Herbicidal ratio of 90% or more (almost completely withered)) |  |  |  | 5 (Herbicidal ratio of 90% or more (almost completely withered)) | 2 (Herbicidal ratio of 20% or higher and lower than 40%) |  | 4 (Herbicidal ratio of 70% or higher and lower than 90%) | 0 (Herbicidal ratio of 5% or lower (almost no effect)) |  | 0 (Herbicidal ratio of 5% or lower (almost no effect)) | 5 (Herbicidal ratio of 90% or more (almost completely withered)) | 5 (Herbicidal ratio of 90% or more (almost completely withered)) | M: Abutilon theophrasti, herbicidal effect grade [2]: 0 (Herbicidal ratio of 5% or lower (almost no effect)); d: soybean, effect on crop grade [4]: 0 (Herbicidal ratio of 5% or lower (almost no effect)); f: beet, effect on crop grade [5]: 0 (Herbicidal ratio of 5% or lower (almost no effect)); O: Chenopodium album, herbicidal effect grade [9]: 0 (Herbicidal ratio of 5% or lower (almost no effect)); Q: Galium spurium, herbicidal effect grade [10]: 0 (Herbicidal ratio of 5% or lower (almost no effect)); L: Apera spica-venti, herbicidal effect grade [11]: 5 (Herbicidal ratio of 90% or more (almost completely withered)); K: Lolium multiflorum Lam., herbicidal effect grade [14]: 5 (Herbicidal ratio of 90% or more (almost completely withered)); F: Digitaria ciliaris, herbicidal effect grade [17]: 5 (Herbicidal ratio of 90% or more (almost completely withered))

From US11000033B2, “Ketone or oxime compound, and herbicide” (NISSAN CHEMICAL CORPORATION, priority 2014, dated 2021)
